Measurements: paper PMC9870012 (Journal of Enzyme Inhibition and Medicinal Chemistry, 2023)

Tests used:
human meprin α = target: T1, human meprin α (Homo sapiens, UniProt Q16819); assay type: biochemical; details: for Ki: Ki(app) Meprin α, geometric mean of three independent experiments with standard deviation factor; for SF: selectivity factor (Ki(app) meprin β/Ki(app) meprin α): meprin α over meprin β; for reduction of the meprin α selectivity by factor: compared to 16a
T1 sequence (Q16819 66-746): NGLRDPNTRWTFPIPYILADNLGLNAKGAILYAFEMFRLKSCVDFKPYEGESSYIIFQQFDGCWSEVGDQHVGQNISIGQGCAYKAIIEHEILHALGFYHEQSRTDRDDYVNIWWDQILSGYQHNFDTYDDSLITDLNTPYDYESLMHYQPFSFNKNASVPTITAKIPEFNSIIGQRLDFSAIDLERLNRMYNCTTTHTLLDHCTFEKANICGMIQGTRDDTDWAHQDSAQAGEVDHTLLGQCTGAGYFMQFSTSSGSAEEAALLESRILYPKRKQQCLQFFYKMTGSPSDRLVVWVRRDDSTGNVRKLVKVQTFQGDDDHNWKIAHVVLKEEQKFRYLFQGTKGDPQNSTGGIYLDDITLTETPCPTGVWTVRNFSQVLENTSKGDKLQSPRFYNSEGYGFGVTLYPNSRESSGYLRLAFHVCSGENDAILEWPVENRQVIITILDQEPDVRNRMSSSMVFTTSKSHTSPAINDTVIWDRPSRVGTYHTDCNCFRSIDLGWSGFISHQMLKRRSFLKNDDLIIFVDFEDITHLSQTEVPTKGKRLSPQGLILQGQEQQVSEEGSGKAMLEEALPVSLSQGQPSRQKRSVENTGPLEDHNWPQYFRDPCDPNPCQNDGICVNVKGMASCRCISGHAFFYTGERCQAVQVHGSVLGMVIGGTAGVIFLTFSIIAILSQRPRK

human meprin β = target: T2, human meprin β (Homo sapiens, UniProt Q16820); assay type: biochemical; details: for Ki: Ki(app) Meprin β, geometric mean of three independent experiments with standard deviation factor; for increased inhibition of meprin β by factor: in comparison to the N-phenyl pyrazole 21b
T2 sequence (Q16820 62-701): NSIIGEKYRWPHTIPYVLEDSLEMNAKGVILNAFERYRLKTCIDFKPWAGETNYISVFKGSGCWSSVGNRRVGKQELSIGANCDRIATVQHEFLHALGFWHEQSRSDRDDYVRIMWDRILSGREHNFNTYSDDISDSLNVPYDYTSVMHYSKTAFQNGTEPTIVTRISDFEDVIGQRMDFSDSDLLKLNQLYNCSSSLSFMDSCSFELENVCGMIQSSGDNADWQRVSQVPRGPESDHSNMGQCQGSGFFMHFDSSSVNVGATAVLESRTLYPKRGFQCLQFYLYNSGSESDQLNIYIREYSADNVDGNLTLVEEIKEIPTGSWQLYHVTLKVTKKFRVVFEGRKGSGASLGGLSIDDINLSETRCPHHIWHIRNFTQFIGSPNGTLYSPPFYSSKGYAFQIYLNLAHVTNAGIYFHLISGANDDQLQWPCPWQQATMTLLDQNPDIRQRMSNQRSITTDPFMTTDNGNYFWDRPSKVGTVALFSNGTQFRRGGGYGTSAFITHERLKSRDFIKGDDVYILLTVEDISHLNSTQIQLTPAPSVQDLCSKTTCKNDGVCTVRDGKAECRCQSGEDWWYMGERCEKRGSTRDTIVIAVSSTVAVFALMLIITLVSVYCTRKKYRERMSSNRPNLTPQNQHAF

Structure (SMILES)	Ki (human meprin α) [nM]	SF: selectivity factor (Ki(app) meprin β/Ki(app) meprin α) (human meprin α)	Ki (human meprin β) [nM]	increased inhibition of meprin β by factor (human meprin β)	reduction of the meprin α selectivity by factor (human meprin α)	improvement in activity against meprin β by factor (human meprin β; compared to 7a)
O=C(Cc1c(C2CCCC2)n[nH]c1-c1ccccc1)NO [14c, 2-(3-Cyclopentyl-5-phenyl-1H-pyrazol-4-yl)ethanehydroxamic acid]	5.6	53	–	–	–	–
O=C(Cc1c(-c2ccccc2)nn(-c2ccc(C(=O)O)cc2)c1-c1ccccc1)NO [21d, 4-[4-[2-(Hydroxyamino)-2-oxo-ethyl]-3,5-diphenyl-pyrazol-1-yl]benzoic acid]	4	46	182	3	–	–
O=C(Cc1c(-c2ccc3c(c2)OCO3)n[nH]c1-c1cccc(C(=O)O)c1)NO [16e, 3-[3-(1,3-Benzodioxol-5-yl)-4-[2-(hydroxyamino)-2-oxo-ethyl]-1H-pyrazol-5-yl)benzoic acid]	3.1	15	–	–	10–20	–
Cn1nc(-c2ccccc2)c(CC(=O)NO)c1-c1ccccc1 [21a, 2-(1-Methyl-3,5-diphenyl-pyrazol-4-yl)ethanehydroxamic acid]	5	87	437	–	–	–
N#Cc1ccc(-c2n[nH]c(-c3ccccc3)c2CC(=O)NO)cc1 [14i, 2-[3-(4-Cyanophenyl)-5-phenyl-1H-pyrazol-4-yl]ethanehydroxamic acid]	13.6	71	–	–	–	–
O=C(Cc1c(-c2ccccc2)[nH]nc1[C@H]1CC[C@@H](C(=O)O)CC1)NO [14t, Cis-4-[4-[2-(hydroxyamino)-2-oxo-ethyl]-5-phenyl-1H-pyrazol-3-yl]cyclohexanecarboxylic acid]	–	4	–	–	–	–
O=C(Cc1c(-c2cccc(C(=O)O)c2)n[nH]c1-c1cccc(C(=O)O)c1)NO [16b, 3-[3-(3-Carboxyphenyl)-4-[2-(hydroxyamino)-2-oxo-ethyl]-1H-pyrazol-5-yl]benzoic acid]	–	1	14.5	–	–	–
O=C(Cc1c(-c2ccc(Cl)c(O)c2F)n[nH]c1-c1ccc(Cl)c(O)c1F)NO [16d, 2-[3,5-Bis(4-chloro-2-fluoro-3-hydroxyphenyl)-1H-pyrazol-4-yl]ethanehydroxamic acid]	4.2	3	–	–	–	–
O=C(Cc1c(C2CCCC(C(=O)O)C2)n[nH]c1-c1ccccc1)NO (centres unmarked) [14r, 3-[4-[2-(Hydroxyamino)-2-oxo-ethyl]-5-phenyl-1H-pyrazol-3-yl]cyclohexanecarboxylic acid]	1.4	39	–	–	–	–
O=C(Cc1c(-c2cccc(C(=O)O)c2)[nH]nc1[C@H]1CC[C@H](C(=O)O)CC1)NO [16l, 3-[3-(Trans-4-Carboxycyclohexyl)-4-[2-(hydroxyamino)-2-oxo-ethyl]-1H-pyrazol-5-yl]benzoic acid]	–	1	–	–	–	–
O=C(Cc1c(-c2ccccc2)nn(-c2cccc(C(=O)O)c2)c1-c1ccccc1)NO [21c, 3-[4-[2-(Hydroxyamino)-2-oxo-ethyl]-3,5-diphenyl-pyrazol-1-yl]benzoic acid]	4	53	212	3	–	–
O=C(Cc1c(-c2ccc3c(c2)OCO3)n[nH]c1-c1ccc(C(=O)O)cc1)NO [16f, 4-[3-(1,3-Benzodioxol-5-yl)-4-[2-(hydroxyamino)-2-oxo-ethyl]-1H-pyrazol-5-yl)benzoic acid]	10.5	9	–	–	10–20	–
O=C(Cc1c(-c2ccc(Cl)c(O)c2F)n[nH]c1-c1ccccc1)NO [14l, 2-[3-(4-Chloro-2-fluoro-3-hydroxyphenyl)-5-phenyl-1H-pyrazol-4-yl]ethanehydroxamic acid]	2.2	31	–	–	–	–
O=C(Cc1c(Cc2ccccc2)n[nH]c1-c1ccccc1)NO [14b, 2-(3-Benzyl-5-phenyl-1H-pyrazol-4-yl)ethanehydroxamic acid]	–	25	–	–	–	–
O=C(Cc1c(-c2ccccc2)nn(-c2ccccc2)c1-c1ccccc1)NO [21b, 2-(1,3,5-Triphenylpyrazol-4-yl)ethanehydroxamic acid]	4	167	667	–	–	–
O=C(Cc1c(-c2c[nH]nc2C(F)(F)F)n[nH]c1-c1ccccc1)NO [14o, 2-[5-Phenyl-3-[3-(trifluoromethyl)-1H-pyrazol-4-yl]-1H-pyrazol-4-yl]ethanehydroxamic acid]	1.6	55	–	–	–	–
O=C(Cc1c(-c2cc(O)no2)n[nH]c1-c1ccccc1)NO [14n, 2-[3-(3-Hydroxyisoxazol-5-yl)-5-phenyl-1H-pyrazol-4-yl]ethanehydroxamic acid]	–	1	–	–	–	–
N#Cc1cccc(-c2n[nH]c(-c3ccccc3)c2CC(=O)NO)c1 [14h, 2-[3-(3-Cyanophenyl)-5-phenyl-1H-pyrazol-4-yl]ethanehydroxamic acid]	4.8	67	–	–	–	–
O=C(Cc1c(-c2cccc(C(=O)O)c2)[nH]nc1[C@H]1CC[C@@H](C(=O)O)CC1)NO [16m, 3-[3-(Cis-4-Carboxycyclohexyl)-4-[2-(hydroxyamino)-2-oxo-ethyl]-1H-pyrazol-5-yl]benzoic acid]	21	0.7	14.5	–	–	–
O=C(Cc1c(-c2ccccc2)nn(Cc2ccccc2)c1-c1ccccc1)NO [21e, 2-(1-Benzyl-3,5-diphenyl-pyrazol-4-yl)ethanehydroxamic acid]	1	291	291	–	–	–
O=C(Cc1c(-c2cccc(-c3nnn[nH]3)c2)n[nH]c1-c1ccccc1)NO [14p, 2-[5-Phenyl-3-[3-(1H-tetrazol-5-yl)phenyl]-1H-pyrazol-4-yl]ethanehydroxamic acid]	0.7	10	6.7	–	–	16
O=C(Cc1c(-c2ccc(C(=O)O)cc2)n[nH]c1-c1ccc(C(=O)O)cc1)NO [16c, 4-[3-(4-Carboxyphenyl)-4-[2-(hydroxyamino)-2-oxo-ethyl]-1H-pyrazol-5-yl]benzoic acid]	–	2	–	–	–	–
O=C(Cc1c(-c2cccc(C(=O)O)c2)n[nH]c1-c1ccc(Cl)c(O)c1F)NO [16i, 3-[5-(4-Chloro-2-fluoro-3-hydroxy-phenyl)-4-[2-(hydroxyamino)-2-oxo-ethyl]-1H-pyrazol-3-yl]benzoic acid]	5.1	1	–	–	–	–
O=C(Cc1c(-c2ccccc2)[nH]nc1[C@H]1CC[C@H](C(=O)O)CC1)NO [14s, Trans-4-[4-[2-(hydroxyamino)-2-oxo-ethyl]-5-phenyl-1H-pyrazol-3-yl]cyclohexanecarboxylic acid]	11.6	8	–	–	–	–
O=C(Cc1c(-c2ccc(C(=O)O)cc2)n[nH]c1-c1ccccc1)NO [14k, 4-[4-[2-(Hydroxyamino)-2-oxo-ethyl]-5-phenyl-1H-pyrazol-3-yl]benzoic acid]	17.2	7	–	–	–	–
O=C(Cc1c(-c2cccc(C(=O)O)c2)n[nH]c1-c1ccccc1)NO [14j, 3-[4-[2-(Hydroxyamino)-2-oxo-ethyl]-5-phenyl-1H-pyrazol-3-yl]benzoic acid]	7.5	6	–	–	–	–
Cc1n[nH]c(-c2ccccc2)c1CC(=O)NO [14a, 2-(3-Methyl-5-phenyl-1H-pyrazol-4-yl)ethanehydroxamic acid]	–	7	–	–	–	–
COc1ccc(-c2n[nH]c(-c3ccccc3)c2CC(=O)NO)cc1 [14e, 2-[3-(4-Methoxyphenyl)-5-phenyl-1H-pyrazol-4-yl]ethanehydroxamic acid]	1.3	48	–	–	–	–
